From PubChem BioAssay (NCI)
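Following 48 hours of exposure in 96-well plates, responses at five concentrations were used to interpolate endpoints linearly. GI50 is the concentration that inhibits growth by half. TGI marks complete inhibition of growth.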

Assays:
Assay in all cases: growth of human tumour cells (NCI), 48 h
MOLT-4 leukemia = test system: MOLT-4 leukemia
PC-3 prostate = test system: PC-3 prostate
SK-MEL-2 melanoma = test system: SK-MEL-2 melanoma
HT29 colon = test system: HT29 colon
OVCAR-5 ovarian = test system: OVCAR-5 ovarian
U251 CNS = test system: U251 CNS
OVCAR-3 ovarian = test system: OVCAR-3 ovarian
TK-10 renal = test system: TK-10 renal
RXF 393 renal = test system: RXF 393 renal
HS 578T breast = test system: HS 578T breast
LOX IMVI melanoma = test system: LOX IMVI melanoma
HL-60(TB) leukemia = test system: HL-60(TB) leukemia
SK-MEL-28 melanoma = test system: SK-MEL-28 melanoma
NCI-H226 lung = test system: NCI-H226 lung
HCC-2998 colon = test system: HCC-2998 colon
SF-295 CNS = test system: SF-295 CNS
M14 melanoma = test system: M14 melanoma
SN12C renal = test system: SN12C renal
UO-31 renal = test system: UO-31 renal
HCT-15 colon = test system: HCT-15 colon
SF-268 CNS = test system: SF-268 CNS
IGROV1 ovarian = test system: IGROV1 ovarian
T-47D breast = test system: T-47D breast
SNB-19 CNS = test system: SNB-19 CNS
DU-145 prostate = test system: DU-145 prostate
UACC-257 melanoma = test system: UACC-257 melanoma
CAKI-1 renal = test system: CAKI-1 renal
OVCAR-8 ovarian = test system: OVCAR-8 ovarian
MALME-3M melanoma = test system: MALME-3M melanoma
SNB-75 CNS = test system: SNB-75 CNS
K-562 leukemia = test system: K-562 leukemia
MCF7 breast = test system: MCF7 breast
OVCAR-4 ovarian = test system: OVCAR-4 ovarian
SK-OV-3 ovarian = test system: SK-OV-3 ovarian
BT-549 breast = test system: BT-549 breast
RPMI-8226 leukemia = test system: RPMI-8226 leukemia
NCI-H522 lung = test system: NCI-H522 lung
HOP-92 NSCLC = test system: HOP-92 NSCLC
SF-539 CNS = test system: SF-539 CNS
NCI-H460 lung = test system: NCI-H460 lung
A498 renal = test system: A498 renal
SR leukemia = test system: SR leukemia
UACC-62 melanoma = test system: UACC-62 melanoma
MDA-MB-435 = test system: MDA-MB-435
MDA-MB-231 breast = test system: MDA-MB-231 breast
NCI-H23 lung = test system: NCI-H23 lung
SW-620 colon = test system: SW-620 colon
786-0 renal = test system: 786-0 renal
HCT-116 colon = test system: HCT-116 colon
CCRF-CEM leukemia = test system: CCRF-CEM leukemia
EKVX NSCLC = test system: EKVX NSCLC
NCI/ADR-RES ovarian = test system: NCI/ADR-RES ovarian
HOP-62 NSCLC = test system: HOP-62 NSCLC
A549 NSCLC = test system: A549 NSCLC
ACHN renal = test system: ACHN renal
COLO 205 colon = test system: COLO 205 colon
KM12 colon = test system: KM12 colon
SK-MEL-5 melanoma = test system: SK-MEL-5 melanoma

For `COc1ccc(/C=C2\COc3ccc(O)c(O)c3C2=O)cc1`, the GI50 (MOLT-4 leukemia) was 376 nM, the TGI (MOLT-4 leukemia) was 20400 nM and the GI50 (PC-3 prostate) was 741 nM. For the same compound, the TGI (PC-3 prostate) was 23600 nM, the GI50 (SK-MEL-2 melanoma) was 517 nM and the TGI (SK-MEL-2 melanoma) was 26900 nM. For the same compound, the GI50 (HT29 colon) was 3270 nM, the TGI (HT29 colon) was 19600 nM and the GI50 (OVCAR-5 ovarian) was 2190 nM. The TGI (OVCAR-5 ovarian) was 5850 nM, the GI50 (U251 CNS) was 1310 nM and the TGI (U251 CNS) was 6070 nM. It also gave a GI50 (OVCAR-3 ovarian) of 511 nM, a TGI (OVCAR-3 ovarian) of 4570 nM and a GI50 (TK-10 renal) of 1570 nM. For the same compound, the TGI (TK-10 renal) was > 27100 nM, the GI50 (RXF 393 renal) was 440 nM and the TGI (RXF 393 renal) was 1310 nM. The GI50 (HS 578T breast) was 422 nM, the TGI (HS 578T breast) was > 100000 nM and the GI50 (LOX IMVI melanoma) was 369 nM. The TGI (LOX IMVI melanoma) was 1520 nM, the GI50 (HL-60(TB) leukemia) was 334 nM and the TGI (HL-60(TB) leukemia) was 2090 nM. For the same compound, the GI50 (SK-MEL-28 melanoma) was 1150 nM, the TGI (SK-MEL-28 melanoma) was 7470 nM and the GI50 (NCI-H226 lung) was 2370 nM. It also gave a TGI (NCI-H226 lung) of 6900 nM, a GI50 (HCC-2998 colon) of 2450 nM and a TGI (HCC-2998 colon) of 6280 nM. For the same compound, the GI50 (SF-295 CNS) was 4620 nM, the TGI (SF-295 CNS) was > 100000 nM and the GI50 (M14 melanoma) was 308 nM. For the same compound, the TGI (M14 melanoma) was > 48200 nM, the GI50 (SN12C renal) was 391 nM and the TGI (SN12C renal) was 2530 nM. For the same compound, the GI50 (UO-31 renal) was 606 nM, the TGI (UO-31 renal) was 1970 nM and the GI50 (HCT-15 colon) was 492 nM. It also gave a TGI (HCT-15 colon) of 2740 nM, a GI50 (SF-268 CNS) of 1340 nM and a TGI (SF-268 CNS) of 6580 nM. It also gave a GI50 (IGROV1 ovarian) of 522 nM, a TGI (IGROV1 ovarian) of 2490 nM and a GI50 (T-47D breast) of 1170 nM. The TGI (T-47D breast) was 4710 nM, the GI50 (SNB-19 CNS) was 2980 nM and the TGI (SNB-19 CNS) was > 100000 nM. For the same compound, the GI50 (DU-145 prostate) was 1080 nM, the TGI (DU-145 prostate) was > 31200 nM and the GI50 (UACC-257 melanoma) was 1470 nM. It also gave a TGI (UACC-257 melanoma) of 8970 nM, a GI50 (CAKI-1 renal) of 951 nM and a TGI (CAKI-1 renal) of 4230 nM. For the same compound, the GI50 (OVCAR-8 ovarian) was 458 nM, the TGI (OVCAR-8 ovarian) was 18700 nM and the GI50 (MALME-3M melanoma) was 751 nM. For the same compound, the TGI (MALME-3M melanoma) was 2690 nM, the GI50 (SNB-75 CNS) was 572 nM and the TGI (SNB-75 CNS) was > 100000 nM. For the same compound, the GI50 (K-562 leukemia) was 330 nM, the TGI (K-562 leukemia) was > 100000 nM and the GI50 (MCF7 breast) was 464 nM. For the same compound, the TGI (MCF7 breast) was > 100000 nM, the GI50 (OVCAR-4 ovarian) was 2380 nM and the TGI (OVCAR-4 ovarian) was > 33200 nM. For the same compound, the GI50 (SK-OV-3 ovarian) was 923 nM, the TGI (SK-OV-3 ovarian) was > 100000 nM and the GI50 (BT-549 breast) was 511 nM. For the same compound, the TGI (BT-549 breast) was 4850 nM, the GI50 (RPMI-8226 leukemia) was 317 nM and the TGI (RPMI-8226 leukemia) was 1200 nM. The GI50 (NCI-H522 lung) was 159 nM, the TGI (NCI-H522 lung) was 402 nM and the GI50 (HOP-92 NSCLC) was 1140 nM. It also gave a TGI (HOP-92 NSCLC) of 6100 nM, a GI50 (SF-539 CNS) of 325 nM and a TGI (SF-539 CNS) of 1170 nM. For the same compound, the GI50 (NCI-H460 lung) was 2460 nM, the TGI (NCI-H460 lung) was 7940 nM and the GI50 (A498 renal) was 1000 nM. The TGI (A498 renal) was 5550 nM, the GI50 (SR leukemia) was 403 nM and the TGI (SR leukemia) was > 100000 nM. The GI50 (UACC-62 melanoma) was 513 nM, the TGI (UACC-62 melanoma) was 2410 nM and the GI50 (MDA-MB-435) was 257 nM. The TGI (MDA-MB-435) was 984 nM, the GI50 (MDA-MB-231 breast) was 420 nM and the TGI (MDA-MB-231 breast) was 3110 nM. It also gave a GI50 (NCI-H23 lung) of 2890 nM, a TGI (NCI-H23 lung) of 14900 nM and a GI50 (SW-620 colon) of 1310 nM. For the same compound, the TGI (SW-620 colon) was 4820 nM, the GI50 (786-0 renal) was 708 nM and the TGI (786-0 renal) was 5270 nM. The GI50 (HCT-116 colon) was 2000 nM, the TGI (HCT-116 colon) was 6850 nM and the GI50 (CCRF-CEM leukemia) was 333 nM. For the same compound, the TGI (CCRF-CEM leukemia) was 9820 nM, the GI50 (EKVX NSCLC) was 2470 nM and the TGI (EKVX NSCLC) was > 61300 nM. It also gave a GI50 (NCI/ADR-RES ovarian) of 329 nM, a TGI (NCI/ADR-RES ovarian) of 35700 nM and a GI50 (HOP-62 NSCLC) of 2240 nM. For the same compound, the TGI (HOP-62 NSCLC) was 16200 nM, the GI50 (A549 NSCLC) was 2550 nM and the TGI (A549 NSCLC) was 16200 nM. It also gave a GI50 (ACHN renal) of 637 nM, a TGI (ACHN renal) of 2000 nM and a GI50 (COLO 205 colon) of 3150 nM. It also gave a TGI (COLO 205 colon) of 10800 nM, a GI50 (KM12 colon) of 924 nM and a TGI (KM12 colon) of 3950 nM. The GI50 (SK-MEL-5 melanoma) was 329 nM and the TGI (SK-MEL-5 melanoma) was 1250 nM.
